Data on seven compounds can be found in patent publication US7763596B2, “Selective glucocorticoid receptor agonists” (The University of Manchester, priority 2000, dated 2010).

What all share (format): cell-based
For one experiment, the target named is T1, endogenous GR (Homo sapiens, UniProt P04150).
T1 construct: This cell line contains functional endogenous GR; endogenous in cells; host or cells: A549
T1 sequence (P04150 1-777): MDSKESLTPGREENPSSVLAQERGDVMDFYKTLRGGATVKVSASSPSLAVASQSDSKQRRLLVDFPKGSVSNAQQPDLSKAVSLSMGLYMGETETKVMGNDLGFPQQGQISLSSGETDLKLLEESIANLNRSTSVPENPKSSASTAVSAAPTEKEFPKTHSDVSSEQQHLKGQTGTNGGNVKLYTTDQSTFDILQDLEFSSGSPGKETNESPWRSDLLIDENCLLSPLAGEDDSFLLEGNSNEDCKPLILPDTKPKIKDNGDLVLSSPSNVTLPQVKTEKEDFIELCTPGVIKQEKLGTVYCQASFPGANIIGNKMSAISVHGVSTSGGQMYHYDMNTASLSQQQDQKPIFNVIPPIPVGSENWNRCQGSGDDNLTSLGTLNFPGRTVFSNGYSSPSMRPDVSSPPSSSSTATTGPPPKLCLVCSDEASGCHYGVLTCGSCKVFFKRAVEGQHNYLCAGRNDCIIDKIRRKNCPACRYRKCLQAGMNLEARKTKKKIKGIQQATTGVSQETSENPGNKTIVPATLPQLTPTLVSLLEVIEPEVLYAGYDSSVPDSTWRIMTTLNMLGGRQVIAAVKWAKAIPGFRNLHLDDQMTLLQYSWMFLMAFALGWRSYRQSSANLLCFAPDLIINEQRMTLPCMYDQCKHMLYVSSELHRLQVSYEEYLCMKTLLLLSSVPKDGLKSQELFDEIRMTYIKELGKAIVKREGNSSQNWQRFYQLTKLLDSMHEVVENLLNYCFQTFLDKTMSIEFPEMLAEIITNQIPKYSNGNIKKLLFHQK
As to the kind of experiment: Transrepression assay using endogenous GR in the A549 lung epithelial cell line (TNF, NRE luciferase). The settings on record: compound G at 1, 10, 100 and 500 nM. The text has this:
The A549 cell line (ECACC:86012804) is derived from the human lung epithelial cells from a carcinoma. This cell line contains functional endogenous GR and is stimulated by Tumour Necrosis Factor (TNF) to produce IL-8.
In this assay TNF was used to stimulate NFkB activity in a cell line that expressed endogenous GR. The ability of NFkB to activate an NRE “driving” a luciferase reporter gene could then be repressed by GR in a ligand dependent manner and, therefore, used to measure transrepression.
COS7 cells were transfected with 3 μg NRE-Luc per 10 cm tissue culture dish. The cells were plated out in to 24 well plates after transfection and left for 18 hours to recover before the steroids of FIGS. 1 and 2 were added. Next TNF was added to the samples after 3 hours incubation with the steroids and after another 15 hours the cells were lysed and a luciferase assay was performed.

The target of the next experiment is T2, GFP tagged GR (Homo sapiens, UniProt P04150).
T2 construct: expressed in transfected cells; host or cells: COS 7
T2 sequence (P04150 1-777): T1 sequence (P04150 1-777)
The experiment in a line: Nuclear translocation using GFP tagged GR and fluorescent microscopy. The note with it: COS 7 cells, 100 nM, 3 hours. An excerpt:
The un-liganded GR is present in the cytoplasm of cells in association with heat shock proteins (HSPs). The binding of an agonist ligand to the GR causes dissociation from the HSPs and translocation to the nucleus. A type I antagonist ligand can bind to the GR but cannot translocate to the nucleus. A type II antagonist ligand can bind to the GR, translocate to the nucleus and bind to DNA but cannot activate gene transcription. Therefore, the ability of a putative ligand to translocate the GR helps to determine its status as an agonist or antagonist. COS 7 cells were transfected with 5 μg of a green fluorescent protein (GFP) tagged GR expression vector. After transfection, these cells were split into 6 well plates with sterile microscope cover slips placed at the bottom of each well. The cells were allowed to recover for 18 hours and then the medium was removed, the cells were washed three times with sterile phosphate buffered saline (PBS) and new medium was added containing charcoal stripped FCS in place of normal FCS. The cells were incubated for 18 hours and then the steroids of FIGS. 1 and 2A were added to make a final concentration of 100 nM. The cells were incubated for a further 3 hours and then the medium was aspirated and the cells were fixed to the glass coverslips by adding ice cold methanol and incubating at −20° C. for 30 mins. The coverslips with the transfected cells fixed to them were mounted on slides and the cellular localisation of the GFP tagged GR was analysed by fluorescent microscopy using an Axioplan 2 microscope (Zeiss, Oberkochen, Germany) and KS300 v3.0 analysis software (Zeiss).

Another experiment has as its target T3, glucocorticoid receptor (Homo sapiens, UniProt P04150).
T3 sequence (P04150 1-777): T1 sequence (P04150 1-777)
As to the kind of experiment: Type II antagonist activity assay: competition of dexamethasone transactivation. The note with it: COS7 cells stimulated with 1 nM dexamethasone. More on the design: expressed in transfected cells; host or cells: COS 7 (African green monkey kidney, deficient in endogenous GR). As to the method: A type II antagonist should be able to compete agonist activity. As an antagonist has no ability to transactivate, competition can be measured by inhibition of an agonist in a transactivation assay.
As with the standard transactivation assay previously described, the GR was artificially expressed in a cell line lacking endogenous GR and a GRE “driving” a luciferase reporter gene was used to measure ligand dependent activation. COS7 cells were transfected with 1 μg pcDNA3-GR and 3 μg AH3-Luc per 10 cm tissue culture dish. The cells were plated out in to 24 well plates after transfection and the steroids were added immediately. […] Certain steroids from FIG. 2A were added at the same concentration to all sample wells. After 18 hour incubation the cells were lysed and a luciferase assay was performed.

As to `CC1CC2C3CCC4=CC(=O)C=CC4(C)C3(F)C(O)CC2(C)C12OC(C)(C)OCC2=O` (stereo not shown) [Compound A], the “repression of TNF activation of A549 cells (NRE reporter gene)” value (shortened to “repression”) on endogenous GR was “exhibited transrepression”. Moreover, on GFP tagged GR, the “nuclear translocation of the GFP tagged glucocorticoid receptor” value (“nuclear translocation” below) was “caused nuclear localisation”.

`CC1CC2C3CCC4=CC(=O)C=CC4(C)C3(F)C(O)CC2(C)C1(O)C(=O)COC(=O)c1ccc(F)cc1` (stereo not shown) [Compound D]: on endogenous GR, the “repression” value is reported as “exhibited transrepression”. In addition, on GFP tagged GR, the “nuclear translocation” value is “caused nuclear localisation”.

With `CCCNC(=O)C1(O)C(C)CC2C3CCC4=CC(=O)C=CC4(C)C3(F)C(O)CC21C` (stereo not shown) [Compound G], the “repression” value at endogenous GR was “repressed at least as well as dexamethasone and also had a “left shifted” response with greater maximal repression”.

As to `Cc1ccc(NC(=O)C2(O)C(C)CC3C4CCC5=CC(=O)C=CC5(C)C4(F)C(O)CC32C)cc1` (stereo not shown) [Compound O], the “nuclear translocation” value on GFP tagged GR is “failed to cause translocation”. At glucocorticoid receptor, the “competition of dexamethasone transactivation” value (“competition” for short) was “failed to repress dexamethasone transactivation”.

As for `CC1CC2C3CCC4=CC(=O)C=CC4(C)C3(F)C(O)CC2(C)C1(O)C(=O)NCCCO` (stereo not shown) [L], at glucocorticoid receptor, the “competition” value is reported as “failed to repress dexamethasone transactivation”.

In the case of `CC1CC2C3CCC4=CC(=O)C=CC4(C)C3(F)C(O)CC2(C)C1(O)C(=O)NCCC(=O)O` (stereo not shown) [Q], the “competition” value on glucocorticoid receptor was “failed to repress dexamethasone transactivation”.

Consider `CCCOC(=O)C1(O)C(C)CC2C3CCC4=CC(=O)C=CC4(C)C3(F)C(O)CC21C` (stereo not shown) [R], for which, at glucocorticoid receptor, the “competition” value is given as “failed to repress dexamethasone transactivation”.
